Here are results for eight compounds from ChEMBL document CHEMBL1201862, “PubChem BioAssay data set” (2004).

What all share (experiment): NCI tumour cell line growth inhibition, 48 h
The subject of experiment [1] is A549.
Experiment [2] concerns CAKI-1.
The subject of experiment [3] is CCRF-CEM.
Experiment [4] relates to DU-145.
In experiment [5] the test system is HCT-116.
Experiment [6] relates to HCT-15.
Experiment [7] relates to HOP-92.
Experiment [8] concerns HT-29.
The test system of experiment [9] is K562.
In experiment [10] the test system is MOLT-4.
The test system of experiment [11] is Malme-3M.
In experiment [12] the test system is OVCAR-3.
In experiment [13] the test system is OVCAR-4.
Experiment [14] concerns OVCAR-5.
For experiment [15], the system named is PC-3.
Experiment [16] has as its system SF-295.
Experiment [17] deals with SK-MEL-28.
Experiment [18] relates to TK-10.
Experiment [19] has as its system UACC-257.
The test system of experiment [20] is SR.

The structures appear in SMILES notation.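 Grown in 96-well plates, cells were treated for 48 hours with each compound at five concentrations. Insufficient inhibition: endpoint recorded as highest concentration tested. GI50: concentration for 50% inhibition of growth.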 Calls of active or inactive are those of the source. Cut-off read from the data, not from the text of the source: active = GI50 up to about 1.1 µM and inactive = higher.

In the case of `CCCCc1ccc(Nc2nc(S)c3[nH]cnc3n2)cc1`, the GI50 in experiment [1] is 36.8 µM (inactive); in [2], 34.5 µM (inactive); in experiment [3], 21.1 µM (inactive); in experiment [4] it was 35.5 µM (inactive); in experiment [5], 25.5 µM (inactive); in [6], 37.5 µM. The GI50 is 32.4 µM (inactive) in [7]; 10.3 µM (inactive) in experiment [8]; 43.4 µM (inactive) in experiment [9]; 1.43 µM (inactive) in [10]; 22 µM (inactive) in [11]; 16.1 µM (inactive) in experiment [12]. Further, the GI50 in experiment [13] is 23.9 µM (inactive); in experiment [14], 17.2 µM (inactive); in experiment [15] it was 29.7 µM (inactive); in experiment [16] it was 25.1 µM (inactive); in experiment [17], 22.9 µM (inactive); in experiment [18], 20.6 µM (inactive). Moreover, the GI50 in [19] was 21.6 µM (inactive).

Take `NC(=S)NNC(=O)/C(=C/c1ccc(/C=C(\NC(=O)c2ccccc2)C(=O)NNC(N)=S)cc1)NC(=O)c1ccccc1`: the GI50 in [1] is > 100 µM (inactive); in experiment [2], > 100 µM (inactive); in experiment [3], 34.3 µM (inactive); in experiment [5] it was 75 µM (inactive); in experiment [6], > 100 µM; in experiment [7] it was > 100 µM (inactive). Besides, the GI50 was > 100 µM (inactive) in experiment [8]; 19.1 µM (inactive) in experiment [9]; 13.8 µM (inactive) in experiment [10]; > 100 µM (inactive) in experiment [11]; > 100 µM (inactive) in experiment [12]; 97.5 µM (inactive) in experiment [13]. Further, the GI50 in experiment [14] is > 100 µM (inactive); in experiment [16] it was > 100 µM (inactive); in experiment [17], > 100 µM (inactive); in [20], 26.1 µM (inactive); in [18] it was > 100 µM (inactive); in [19] it was > 100 µM (inactive).

Regarding `NC(=S)N/N=C1\C(=O)C=C(Nc2ccc(Cl)cc2Cl)c2ccccc21`, the GI50 in [1] is > 100 µM (inactive); in [2], 15.8 µM (inactive); in experiment [4] it was 96.6 µM (inactive); in experiment [5] it was 56.2 µM (inactive); in experiment [6] it was 31.1 µM; in [7], 15.8 µM (inactive). In addition, the GI50 is > 100 µM (inactive) in experiment [8]; 51.2 µM (inactive) in [10]; 21.3 µM (inactive) in experiment [12]; 33.2 µM (inactive) in experiment [13]; > 100 µM (inactive) in experiment [14]; 12.8 µM (inactive) in experiment [16]. For the same compound, the GI50 in experiment [17] is > 100 µM (inactive); in [18], 32.4 µM (inactive); in experiment [19], > 100 µM (inactive).

As to `CCOC(=O)c1cc(C2(OC)CCN(Cc3ccccc3)C2=O)c(-c2cc(C)no2)[nH]1` (configuration not stated), the GI50 was > 100 µM (inactive) in experiment [1]; > 100 µM (inactive) in [2]; > 100 µM (inactive) in [4]; > 100 µM (inactive) in experiment [5]; > 100 µM in experiment [6]; 90.6 µM (inactive) in [7]. Also, the GI50 in [8] was 75.7 µM (inactive); in experiment [9], > 100 µM (inactive); in experiment [10], > 100 µM (inactive); in [11], > 100 µM (inactive); in [12], > 100 µM (inactive); in experiment [13] it was > 100 µM (inactive). Further, the GI50 in experiment [14], in experiment [15], in experiment [16], in experiment [17], in experiment [18] and in experiment [19] was > 100 µM (inactive) throughout.

With `CC1=C(CO)C(=O)O[C@@H]([C@@H](CO)[C@H]2CCC3C4C[C@@H](O)[C@@]5(O)CC=CC(=O)[C@]5(C)C4CC[C@@]32C)C1` (some centres not stated), the GI50 was > 100 µM (inactive) in experiment [1]; > 100 µM (inactive) in experiment [2]; 34.1 µM (inactive) in [3]; > 100 µM (inactive) in [4]; 37.2 µM (inactive) in experiment [5]; 32 µM in [6]. In addition, the GI50 in experiment [7] was 71 µM (inactive); in experiment [8], 44.2 µM (inactive); in experiment [9] it was 31.8 µM (inactive); in [10], 36.3 µM (inactive); in [11] it was 94 µM (inactive); in [12] it was 22 µM (inactive). Also, the GI50 in experiment [13] was 91.8 µM (inactive); in [14], 83.9 µM (inactive); in experiment [16], > 100 µM (inactive); in experiment [20] it was 34.9 µM (inactive); in experiment [18], > 100 µM (inactive); in [19] it was 58.6 µM (inactive).

Regarding `Cc1ccc(C(=O)Nc2ccc(S(=O)(=O)O)c3cc(S(=O)(=O)O)cc(S(=O)(=O)O)c23)cc1NC(=O)c1cccc(N)c1`, the GI50 in [1] is > 100 µM (inactive); in [2], > 100 µM (inactive); in experiment [3], > 100 µM (inactive); in experiment [6], > 100 µM; in experiment [8], > 100 µM (inactive); in experiment [9] it was > 100 µM (inactive). Further, the GI50 in experiment [10] is > 100 µM (inactive); in experiment [11], 1.05 µM (active); in experiment [12], > 100 µM (inactive); in experiment [13] it was > 100 µM (inactive); in experiment [14], > 100 µM (inactive); in experiment [15], > 100 µM (inactive). Besides, the GI50 in experiment [16], in experiment [17], in experiment [20], in experiment [18] and in [19] was > 100 µM (inactive) each time.

On to `CCOC(=O)c1nc2ccccc2nc1NCc1ccc(OC)cc1`, for which the GI50 in experiment [1] was > 100 µM (inactive); in experiment [2], > 100 µM (inactive); in experiment [3] it was > 100 µM (inactive); in [4], > 100 µM (inactive); in experiment [5], 54.8 µM (inactive); in experiment [6], > 100 µM. For the same compound, the GI50 in experiment [7] was > 100 µM (inactive); in experiment [8], 96.4 µM (inactive); in experiment [9] it was > 100 µM (inactive); in experiment [10], > 100 µM (inactive); in [11] it was > 100 µM (inactive); in experiment [12] it was > 100 µM (inactive). The GI50 is > 100 µM (inactive) in experiment [13]; > 100 µM (inactive) in [14]; > 100 µM (inactive) in [16]; > 100 µM (inactive) in experiment [17]; > 100 µM (inactive) in experiment [20]; 17 µM (inactive) in [18]. Also, in [19], the GI50 was > 100 µM (inactive).

Regarding `C[C@]12C=CC(=O)C=C1CC[C@H]1[C@@H]3C[C@@H](O)[C@](O)(C(=O)CO)[C@@]3(C)C[C@H](O)[C@@]12F` [TRIAMCINOLONE], the GI50 in experiment [1] was > 100 µM (inactive); in [2], > 100 µM (inactive); in experiment [3], 1.4 µM (inactive); in experiment [5], > 100 µM (inactive); in [6] it was > 100 µM; in experiment [7] it was > 100 µM (inactive). Besides, the GI50 in experiment [8], in experiment [9], in [10], in experiment [11], in experiment [12] and in [13] was > 100 µM (inactive) in each case. The GI50 in [14], in experiment [16], in [17], in [20], in experiment [18] and in [19] was > 100 µM (inactive) in each case.
